In PubChem BioAssay (NCI):
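Each compound was tested at five concentrations against cells in 96-well plates for 48 hours. GI50 marks 50% less growth. TGI is the concentration that stops growth completely.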

Experiments:
Assay in all cases: NCI anticancer screen, dose series, 48 h
DMS 114 small cell lung = test system: DMS 114 small cell lung
EKVX NSCLC = test system: EKVX NSCLC
HCT-116 colon = test system: HCT-116 colon
LOX IMVI melanoma = test system: LOX IMVI melanoma
OVCAR-5 ovarian = test system: OVCAR-5 ovarian
RXF 393 renal = test system: RXF 393 renal
SK-MEL-5 melanoma = test system: SK-MEL-5 melanoma
SNB-19 CNS = test system: SNB-19 CNS
SNB-78 CNS = test system: SNB-78 CNS
TK-10 renal = test system: TK-10 renal
COLO 205 colon = test system: COLO 205 colon

Structure (SMILES) | TGI (DMS 114 small cell lung) [µM] | TGI (EKVX NSCLC) [µM] | TGI (HCT-116 colon) [µM] | TGI (LOX IMVI melanoma) [µM] | TGI (OVCAR-5 ovarian) [µM] | TGI (RXF 393 renal) [µM] | TGI (SK-MEL-5 melanoma) [µM] | TGI (SNB-19 CNS) [µM] | TGI (SNB-78 CNS) [µM] | TGI (TK-10 renal) [µM] | TGI (COLO 205 colon) [µM] | GI50 (COLO 205 colon) [µM] | GI50 (EKVX NSCLC) [µM] | GI50 (HCT-116 colon) [µM] | GI50 (LOX IMVI melanoma) [µM] | GI50 (OVCAR-5 ovarian) [µM] | GI50 (RXF 393 renal) [µM] | GI50 (SK-MEL-5 melanoma) [µM] | GI50 (SNB-19 CNS) [µM] | GI50 (TK-10 renal) [µM]
COc1ccc(/C(C=O)=C(\Cl)c2ccc(OC)c(OC)c2)cc1 | > 100 | > 100 | > 100 | > 100 | > 100 | > 100 | > 100 | > 100 | > 100 | > 100 |  |  |  |  |  |  |  |  |  | 
CCOC(=O)CNC(=O)c1[nH]cnc1/N=N/N(C)C | > 100 | > 100 | > 100 | > 100 | > 100 |  | > 100 | > 100 |  | > 100 | > 100 |  |  |  |  |  |  |  |  | 
CCOC(=O)C(Cc1ccc(N=NN(C)C)cc1)NC(=O)CC1c2ccccc2-c2ccccc21 (configuration not stated) | > 100 | > 100 | > 100 | > 100 | > 100 |  | > 100 | > 100 |  | > 100 | > 100 |  |  |  |  |  |  |  |  | 
CCOC(=O)C1C(c2ccc(Br)cc2)N(Cc2ccccc2)C(c2ccc(Br)cc2)C(C(=O)OC)S1(=O)=O (configuration not stated) | > 100 | > 100 | > 100 | > 100 | > 100 | > 100 |  | > 100 | > 100 | > 100 | > 100 |  |  |  |  |  |  |  |  | 
Cc1cc(NC(=O)NC(=O)c2ccccc2NC(=O)CN(C)C)ccc1Oc1ncc(Br)cn1 | 35.7 | > 100 | > 79.4 | > 100 | > 100 | 22.8 | > 100 | > 100 | > 100 | > 100 | 39.7 |  |  |  |  |  |  |  |  | 
COCc1cc2c(s1)C(=O)C1=C(C2=O)C2(C=C(Br)C(=O)C(Br)=C2)CCN1 | 3.34 | 26.3 | 3.11 | 7.68 | 29.5 | 6.94 | 5.62 | 35.5 | 24.4 | 32.4 | 12.4 |  |  |  |  |  |  |  |  | 
BrC1(c2ccccc2)C[n+]2c(-c3ccccc3)cc(-c3ccccc3)cc2-c2ccccc21 (configuration not stated) |  | 18.8 | 8.32 | 1.82 | 4.1 | 0.635 | 0.366 | 17.5 |  | 20.6 | 0.318 |  |  |  |  |  |  |  |  | 
C/C(=N\NC(=S)NC(C)(C)C)c1nc2ncccc2[nH]1 |  | > 65 | > 100 | > 100 | > 21.7 | > 100 | 14.1 | > 90.5 |  | > 100 | > 31.6 |  |  |  |  |  |  |  |  | 
O=C(Nc1ccc(-n2cc(-c3ccncc3)c(-c3ccc(O)c(Cl)c3)n2)cc1)Nc1cc(C(F)(F)F)cc(C(F)(F)F)c1 |  | 15.6 | 13.7 | 23.7 | 12.7 | 6.9 | 15.5 | 16.5 |  | 13.6 | 7.83 | 2.62 | 3.57 | 3.78 | 3.73 | 3.17 | 2.54 | 4.08 | 4.45 | 3.55
CC(C)CNP(=O)(NCC(C)C)Oc1ccc(CC(NC(=O)OCc2ccccc2)C(=O)OCc2ccccc2)cc1 (configuration not stated) |  | 77.2 | 37.6 | 32.5 | > 100 | 36.2 | 45.8 | 57.8 |  | > 100 | 35.4 |  |  |  |  |  |  |  |  | 
CC(C)(C)OC(=O)N[C@H]1CC(=O)c2ccccc2N(CC(=O)O)C1=O | > 100 | > 100 | 75 | > 100 |  | > 100 | > 100 | > 100 |  | > 100 | > 100 |  |  |  |  |  |  |  |  | 
CC(=O)Oc1cc2c(cc1OCC(F)(F)F)[C@H]1CC[C@]3(C)[C@@H](OC(C)=O)CC[C@H]3[C@@H]1CC2=O |  | > 72.1 | 55 | > 78 | 44.5 | 50 | 49.2 | > 67 |  | 46.2 | 89.6 |  |  |  |  |  |  |  |  | 
COc1ccc(O[C@H](CO)C[C@@H]2COC(C)(C)O2)cc1 |  | > 100 | > 100 | > 100 | > 100 | > 100 | > 100 | > 100 |  | > 100 | > 100 |  |  |  |  |  |  |  |  | 
Cc1ccc(S(=O)(=O)OCCN(CCOS(=O)(=O)c2ccc(C)cc2)c2ccc(C=O)cc2)cc1 |  | 91 | > 100 | > 100 | 64.8 | 33.2 | > 100 | > 100 |  | > 100 | > 100 |  |  |  |  |  |  |  |  | 
CN1CCCc2nc3ccccc3n2C1 | > 100 | > 100 | > 100 | > 100 | > 100 | > 100 | > 100 | > 100 | > 100 | > 100 | > 100 |  |  |  |  |  |  |  |  | 
Cc1cc(-c2ccc(N=Nc3ccc4c(S(=O)(=O)O)cc(S(=O)(=O)O)c(N)c4c3O)c(C)c2)ccc1N=Nc1ccc2c(S(=O)(=O)O)cc(S(=O)(=O)O)c(N)c2c1O | > 100 | > 100 | > 100 | > 100 | > 100 | > 100 | > 100 | > 100 | > 100 |  | > 100 |  |  |  |  |  |  |  |  | 
